Earlier results in patent US5981529A, “Substituted indolylpropyl-piperazine derivatives as 5-HT1D α agonists” (Merck Sharp & Dohme Limited, priority 1995, dated 1999).

What was measured:
[1] = system: human 5-HT1Dα and 5-HT1Dβ receptor subtypes; settings: cf. WO-A-91/17174, Table 1
[2] = therapeutic doses

## CNS(=O)(=O)Cc1ccc2[nH]cc(CCN(C)C)c2c1 [sumatriptan]
[1]
  discrimination between the human 5-HT1Dα and 5-HT1Dβ receptor subtypes: barely discriminates between the human 5-HT1Dα and 5-HT1Dβ receptor subtypes
[2]
  adverse events on administration to humans: certain adverse cardiovascular events
